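Tested at 5 concentrations; 48 h exposure; 96-well plates; endpoints linearly interpolated, else capped at highest concentration. Here, GI50 denotes the concentration required for 50% inhibition of growth.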 The source made the active and inactive calls. Rule as the data show it: active = GI50 up to about 1.1 µM and inactive = higher.

Among the test systems are NCI-H460; LOX IMVI; CCRF-CEM; HOP-92; T47D; MDA-MB-231; HCT-15; OVCAR-4; SF-268; Malme-3M; SK-MEL-28; UACC-257; OVCAR-5; PC-3; NCI-H226; DU-145; OVCAR-3; SR; COLO 205; A498.
Holding throughout (test): NCI-60 cell line screen, 48 h

Regarding `CCCCCCCCCCCCCCCCCCNc1ccn(C2OC(COP(=O)(O)OCC(COP(=O)(O)OCC3OC(n4cc(C)c(=O)[nH]c4=O)CC3N=[N+]=[N-])OCCCCCCCCCCCCCCCCCC)C(O)C2O)c(=O)n1` (stereo not given), the GI50 in the test with NCI-H460 is 54.3 µM (inactive); in the test with LOX IMVI it was 21.2 µM (inactive); in the test with CCRF-CEM, > 100 µM (inactive); in the test on HOP-92 it was 20.3 µM (inactive); with T47D, 46.7 µM (inactive); in the test with MDA-MB-231, 44.3 µM (inactive). Besides, the GI50 with HCT-15 was 34 µM; in the test on OVCAR-4, 70.5 µM (inactive); in the test with SF-268 it was 50.6 µM (inactive); with Malme-3M, 27 µM (inactive); in the test on SK-MEL-28 it was > 100 µM (inactive); in the test on UACC-257, 50.1 µM (inactive). Moreover, the GI50 is 76.9 µM (inactive) in the test with OVCAR-5; 29.4 µM (inactive) in the test on PC-3; > 100 µM (inactive) in the test with NCI-H226; > 100 µM (inactive) in the test on DU-145; > 100 µM (inactive) in the test on OVCAR-3; > 100 µM (inactive) in the test on SR. The GI50 in the test on COLO 205 is 54.5 µM (inactive); with A498, > 100 µM (inactive).
For `COCn1c(=O)n(C)c(=O)c2c1nc1c(c(=O)n(C)c(=O)n1COC)[n+]2[O-]`, the GI50 with NCI-H460 was 3.15 µM (inactive); with LOX IMVI, 6.68 µM (inactive); with CCRF-CEM, 5.37 µM (inactive); in the test on HOP-92 it was 3.61 µM (inactive); in the test with T47D it was 3.13 µM (inactive); in the test with MDA-MB-231, 15.3 µM (inactive). The GI50 is 4.22 µM in the test with HCT-15; 4.85 µM (inactive) in the test with OVCAR-4; 6.65 µM (inactive) in the test with SF-268; 5.47 µM (inactive) in the test with Malme-3M; 35.9 µM (inactive) in the test with SK-MEL-28; 18.2 µM (inactive) in the test with UACC-257. The GI50 in the test on OVCAR-5 was 25.1 µM (inactive); in the test on PC-3, 5.07 µM (inactive); with NCI-H226 it was 10.1 µM (inactive); with DU-145, 17.1 µM (inactive); in the test with OVCAR-3, 10.6 µM (inactive); with SR, 3.77 µM (inactive). In addition, the GI50 in the test on COLO 205 is 12.5 µM (inactive); with A498, 31.2 µM (inactive).
On to `CC1=CC(=O)[C@@H](O)[C@]2(C)[C@H]3[C@@]4(O)OC[C@]35[C@H]([C@@H](C)[C@H]4O)[C@@H](O)C(=O)O[C@@H]5C[C@@H]12`, for which the GI50 with NCI-H460 is 0.214 µM (active); in the test on LOX IMVI it was 0.0895 µM (active); with CCRF-CEM, 0.261 µM (active); in the test with HOP-92, 0.327 µM (active); in the test with T47D, 0.225 µM (active); with MDA-MB-231 it was 0.252 µM (active). Further, the GI50 in the test on HCT-15 was 0.175 µM; with OVCAR-4 it was 0.597 µM (active); in the test with SF-268 it was 0.231 µM (active); with Malme-3M, 0.0438 µM (active); with SK-MEL-28, 0.156 µM (active); in the test on UACC-257, 0.276 µM (active). In addition, the GI50 in the test on OVCAR-5 was 0.706 µM (active); in the test on PC-3 it was 0.293 µM (active); in the test on NCI-H226, 0.194 µM (active); with DU-145, 0.33 µM (active); with OVCAR-3 it was 0.247 µM (active); in the test with SR it was 77.6 µM (inactive). Further, the values for the GI50 in the test on COLO 205 and in the test with A498 were 0.543 µM (active) and 0.448 µM (active), respectively.
With `CC1OC(OC2C(OC(=O)[C@]34CCC(C)(C)C[C@H]3C3=CC[C@@H]5[C@@]6(C)CC[C@H](OC7OC(CO)C(O)C(O)C7OC7OC(CO)C(O)C(O)C7O)C(C)(C)[C@@H]6CC[C@@]5(C)[C@]3(C)CC4)OCC(O)C2O)C(O)C(O)C1OC1OCC(O)C(O)C1O` (stereo not given in full), the GI50 was 24.4 µM (inactive) in the test on NCI-H460; 18.2 µM (inactive) in the test with LOX IMVI; 18.5 µM (inactive) in the test on CCRF-CEM; 6.85 µM (inactive) in the test on HOP-92; 15.4 µM (inactive) with T47D; 7.83 µM (inactive) in the test with MDA-MB-231. Also, the GI50 in the test with HCT-15 is 15.7 µM; with OVCAR-4 it was 9.59 µM (inactive); in the test with SF-268, 6.85 µM (inactive); in the test on Malme-3M it was 3.82 µM (inactive); in the test on SK-MEL-28, 2.65 µM (inactive); in the test with UACC-257 it was 2.51 µM (inactive). Besides, the GI50 in the test with OVCAR-5 is 7.98 µM (inactive); in the test with PC-3, 12.4 µM (inactive); in the test with NCI-H226, 10.8 µM (inactive); in the test on DU-145, 11.9 µM (inactive); with OVCAR-3, 23.9 µM (inactive); with SR, 7.93 µM (inactive). The GI50 was 1.71 µM (inactive) with COLO 205 and 2.25 µM (inactive) in the test with A498.
As to `Cn1c(=O)cc(/N=N\c2ccc(Cl)c(Cl)c2)[nH]c1=O`, the GI50 in the test on NCI-H460 is 29.9 µM (inactive); in the test with LOX IMVI, 19.2 µM (inactive); with CCRF-CEM it was 24.2 µM (inactive); in the test with HOP-92 it was 30 µM (inactive); with T47D, 29.7 µM (inactive); in the test on MDA-MB-231, 24.8 µM (inactive). For the same compound, the GI50 in the test on HCT-15 is 19.6 µM; in the test with OVCAR-4, 27.7 µM (inactive); with SF-268, 20.1 µM (inactive); with Malme-3M, 16.1 µM (inactive); in the test with SK-MEL-28 it was 23.6 µM (inactive); with UACC-257 it was 33.5 µM (inactive). In addition, the GI50 in the test on OVCAR-5 is 24.8 µM (inactive); in the test with PC-3, 23.3 µM (inactive); with NCI-H226, > 100 µM (inactive); in the test with DU-145, 85.5 µM (inactive); in the test with OVCAR-3, 18.7 µM (inactive); with SR it was 25.5 µM (inactive). Also, the GI50 is 22.2 µM (inactive) with COLO 205 and > 100 µM (inactive) in the test on A498.
On to `O=C(NNCC(F)(F)F)c1ccncc1`, for which the GI50 with NCI-H460, in the test on LOX IMVI, in the test with CCRF-CEM, with HOP-92, with T47D and in the test with MDA-MB-231 was > 100 µM (inactive) in each case. For the same compound, the GI50 in the test with HCT-15 was above 100 µM; with OVCAR-4 it was > 100 µM (inactive); with SF-268, > 100 µM (inactive); in the test with Malme-3M, > 100 µM (inactive); in the test on SK-MEL-28, > 100 µM (inactive); in the test on UACC-257, > 100 µM (inactive). Besides, the GI50 with OVCAR-5, in the test on PC-3, with NCI-H226, in the test with DU-145, with OVCAR-3 and in the test on SR was > 100 µM (inactive) throughout. Also, the GI50 in the test with COLO 205 and in the test with A498 was > 100 µM (inactive) in each case.
As for `Cc1ccc([N+](=O)[O-])cc1S(=O)(=O)Nc1ccc(C2=NOC(c3cccs3)C2)cc1` (stereo not given), the GI50 was 9.66 µM (inactive) with NCI-H460; 11 µM (inactive) in the test on LOX IMVI; 8.93 µM (inactive) with CCRF-CEM; 19.9 µM (inactive) in the test with HOP-92; 12.8 µM (inactive) in the test with T47D; 18.7 µM (inactive) in the test with MDA-MB-231. The GI50 in the test on HCT-15 was 4.75 µM; in the test on OVCAR-4 it was 9.42 µM (inactive); in the test on SF-268, 18.4 µM (inactive); with Malme-3M, 13.9 µM (inactive); in the test with SK-MEL-28, 20.1 µM (inactive); in the test with UACC-257, 16.9 µM (inactive). Also, the GI50 in the test on OVCAR-5 is 32.3 µM (inactive); with PC-3, 8.93 µM (inactive); in the test with NCI-H226, 25.1 µM (inactive); in the test on DU-145, 17.6 µM (inactive); in the test on OVCAR-3, 5.19 µM (inactive); in the test with SR, 2.05 µM (inactive). Further, the GI50 in the test on COLO 205 was 7.8 µM (inactive); in the test on A498, 4.56 µM (inactive).
Turning to `CSC(=NC1=NC(C(F)(F)F)(C(F)(F)F)N=C(c2ccccc2)O1)SC`, the GI50 in the test with NCI-H460 is 12.2 µM (inactive); with LOX IMVI, 5.75 µM (inactive); in the test on CCRF-CEM, 6.92 µM (inactive); in the test on HOP-92, 7.8 µM (inactive); in the test with T47D, 3.1 µM (inactive); with MDA-MB-231 it was 20.3 µM (inactive). Also, the GI50 in the test with HCT-15 was 4.88 µM; with OVCAR-4, 10.3 µM (inactive); in the test on SF-268, 5.07 µM (inactive); with Malme-3M, 16.3 µM (inactive); in the test with SK-MEL-28, 38.7 µM (inactive); in the test with UACC-257 it was 22 µM (inactive). Further, the GI50 in the test on OVCAR-5 was 26.4 µM (inactive); with PC-3, 5.14 µM (inactive); in the test with NCI-H226, 26.9 µM (inactive); in the test with DU-145, 6.9 µM (inactive); in the test on OVCAR-3, 7.46 µM (inactive); in the test with SR, 10.7 µM (inactive). Besides, the GI50 is 14.6 µM (inactive) in the test on COLO 205 and 17.7 µM (inactive) with A498.
For `c1cnc2c(c1)Nc1cnncc1S2`, the GI50 in the test on NCI-H460 is > 100 µM (inactive); in the test on LOX IMVI, > 100 µM (inactive); in the test on CCRF-CEM it was > 100 µM (inactive); with HOP-92, 86.3 µM (inactive); in the test with T47D it was > 100 µM (inactive); in the test on MDA-MB-231 it was > 100 µM (inactive). Besides, the GI50 was above 100 µM with HCT-15; > 100 µM (inactive) in the test on OVCAR-4; > 100 µM (inactive) in the test with SF-268; > 100 µM (inactive) in the test on Malme-3M; > 100 µM (inactive) with SK-MEL-28; > 100 µM (inactive) in the test with UACC-257. Besides, the GI50 was > 100 µM (inactive) with OVCAR-5; > 100 µM (inactive) with PC-3; 86.9 µM (inactive) with NCI-H226; > 100 µM (inactive) with DU-145; > 100 µM (inactive) with OVCAR-3; 53.3 µM (inactive) in the test with SR. In addition, the GI50 in the test with COLO 205 and in the test on A498 was > 100 µM (inactive) in each case.
For `CC1c2ccccc2Cn2cc3c(c21)C(=O)c1cccc(OP(=O)(O)OCc2ccccc2)c1C3=O` (stereo not given), the GI50 with NCI-H460 is > 100 µM (inactive); in the test on LOX IMVI, > 100 µM (inactive); with CCRF-CEM, > 56 µM (inactive); with HOP-92, > 100 µM (inactive); in the test on T47D it was 51.6 µM (inactive); in the test with MDA-MB-231, > 100 µM (inactive). The GI50 is above 100 µM in the test with HCT-15; > 100 µM (inactive) with OVCAR-4; > 100 µM (inactive) with SF-268; > 100 µM (inactive) in the test on Malme-3M; > 100 µM (inactive) in the test with SK-MEL-28; > 100 µM (inactive) in the test on UACC-257. Also, the GI50 with OVCAR-5 is > 100 µM (inactive); with PC-3, > 100 µM (inactive); in the test with NCI-H226 it was > 100 µM (inactive); in the test on DU-145 it was > 100 µM (inactive); in the test on OVCAR-3, > 100 µM (inactive); with SR, > 66.5 µM (inactive). For the same compound, the GI50 in the test on COLO 205 and with A498 was > 100 µM (inactive) throughout.

The record behind these values is ChEMBL document CHEMBL1201862, “PubChem BioAssay data set” (2004).
